Source: article PMC10747479, “Improving Bioaccessibility and Bioavailability of Isoflavone Aglycones from Chickpeas by Germination and Forming β-Cyclodextrin Inclusion Complexes” (Pharmaceutics, 2023)
Like-named read-outs stand apart in the source and are kept apart here.

Experiments:
[1] = In vitro release in simulated gastric and intestinal fluid; assay type: physicochemical; details: artificial gastric juice and artificial intestinal juice, 37 °C, 100 rpm, up to 24 h
Description: According to the determination method of dissolution and release in Chinese Pharmacopoeia 2020, the in vitro sustained release of the isoflavones in the CSE/β-CD inclusion complex and CSE was determined on a SOTAX AT. 7× dissolution tester (Stetten, Switzerland) with a stirring rate of 100 rpm at 37 °C [16] using FMN and BCA as the evaluation index. Simulated gastric fluid (SGF) and simulated intestinal fluid (SIF) were used as release media. The preparation method of SGF was to mix 16.4 mL of the HCl solution (9.5–10.5% by volume) and 10 g of pepsin into 800 mL water, and finally adjust the volume to 1000 mL of water. The preparation of SIF was to add 6.8 g of potassium dihydrogen phosphate to 500 mL of water (use 0.1 M NaOH to adjust the pH to 6.8), then add 10 g of trypsin, and finally adjust the volume to 1000 mL of water. The CSE/β-CD inclusion complex (400.00 mg, containing 2.08 mg FMN and 7.16 mg BCA), CSE (94.12 mg, containing 2.08 mg FMN), and CSE (205.16 mg, containing 7.16 mg BCA) were weighed and added to 900 mL of release media, respectively. […] The sample was added to 3 times the volume of acetonitrile to remove the protein, then centrifuged at 10000 rpm for 10 min, and the obtained supernatant was analyzed by HPLC. […]

[2] = Tissue distribution of FMN and BCA in rats after oral CSE or inclusion complex; assay type: in vivo, Sprague–Dawley (SD) rats; details: 0.25 h after intragastric administration; for distribution characteristics of the contents in rat tissues: CSE or inclusion complex
Description: (§1) The specific pathogen-free (SPF) male Sprague–Dawley (SD) rats (average body weight, 220 ± 10 g) aged eight weeks old were purchased from Shanghai Slake Laboratory Animal Co., Ltd. (Shanghai, China). After being raised in an environment-controlled feeding room for 1 week, the SD rats were divided into three groups (groups A, B, and C), with six in each group. They were fasted for 12 h and supplied with unlimited water before the experiments. In group A, 200 mg of the CSE/β-CD inclusion complex (FMN: 1.04 mg, BCA: 3.58 mg) was weighed and prepared into a 3 mL suspension by pure water and then given to each rat by gavage. In group B, a certain amount of CSE with FMN of the same quality as that in the inclusion complex was weighed and prepared into a 3 mL suspension by pure water and then given to each rat by gavage. In group C, a certain amount of CSE, ensuring that the content of BCA was the same as that in the inclusion complex, was weighed and prepared into s 3 mL suspension by pure water and then given to each rat by gavage. The dosage of FMN and BCA in rats was controlled at approximately 5 mg/kg and 18 mg/kg, respectively. Approximately 300 μL rat retro-orbital blood samples were obtained and transferred to heparinized tubes […] at 0.083, 0.25, 0.50, 0.75, 1, 2, 4, 6, 8, 12, and 24 h following intragastric administration. After centrifuging at 3500 rpm for 10 min, the upper plasma was put in clean tubes and placed at −20 °C before use. The rats were killed using the carbon dioxide box after taking blood at the last time point. A batch of new SD rats was raised with the same grouping and administration method for the study of tissue composition. At 0.25 h after intragastric administration, the rats were killed, and the organs including hearts, livers, spleens, lungs, kidneys, and brains were quickly separated, put into centrifuge tubes, and temporarily stored at 4 °C.
The contents of FMN and BCA in the tissues of rats were also determined by the above-established UPLC-MS/MS method.
The tissue was washed with normal saline to remove the residual blood, the water on the surface of the tissue was dried, and the tissue was weighed, cut into small pieces, and put into a centrifuge tube. Then, it was added to normal saline of the same amount as the tissue and ground into a homogenate. Then, 300 μL of the tissue homogenate was placed into a centrifuge tube, adding 60 μL of IS and 840 μL of acetonitrile to precipitate the protein. After centrifuging at 13,000 rpm for 10 min, the supernatant was collected and centrifuged again. Finally, the obtained supernatant was taken for subsequent analysis.

[3] = Inclusion ratio and drug loading of the CSE/β-CD inclusion complex; assay type: physicochemical; details: for inclusion ratio: CSE with β-CD, optimal conditions: β-CD/CSE 4:1, 40 °C, 400 rpm, 2 h; for drug loading in the CSE/β-CD inclusion complex: optimal conditions
Description: A saturated aqueous solution method was used to prepare the inclusion complexes. β-CD (456 mg) was dispersed into 20 mL of water and heated with a water bath. CSE was accurately weighed according to the mass ratio of β-CD/CSE at 7:1 (g/g) to 3:1 (g/g) and dissolved in a small amount of ethanol to obtain CSE ethanol suspension, which was slowly dripped into the β-CD aqueous solution under 30 to 70 °C and at a stirring speed of 200 rpm to 1000 rpm. The mixed solution was stirred for 0.5 h to 4 h. After cooling to room temperature, the mixture was placed at 4 °C for 24 h, and then filtered quickly. The filter residue was moistened with a small amount of ethanol and dried to obtain the β-CD/CSE inclusion complex. The amounts of BCA and FMN in the initial CSE (Mc) and filtrate (Mf) were determined under the same conditions as above using an Agilent 1260 Infinity II HPLC. The inclusion ratio of FMN and BCA was used as an evaluation index to optimize the preparation methods. The calculation formula of the inclusion ratio (R%) was as follows:(1) R%=1−Mf/Mc×100% where Mf is the mass of the remaining isoflavones in the filtrate and Mc is the mass of the isoflavones in the CSE initially added.

[4] = Oral pharmacokinetics of FMN and BCA in rat plasma after CSE or CSE/β-CD inclusion complex; assay type: in vivo, Sprague–Dawley (SD) rats; details: rats; for AUC(0-inf) / AUC(0-t) / Cmax / half-life / k el / Tmax: male, Sprague-Dawley, rat; for AUC(0-inf) / AUC(0-t) / Cmax / half-life / k el / Tmax / CL / Vd: plasma, FMN approx. 5 mg/kg, BCA approx. 18 mg/kg; for AUC(0-inf) / AUC(0-t) / Cmax / half-life / k el: po; for k el: read-out: Ke (converted); for time at which concentration in rat plasma reached the peak / relative bioavailability in the inclusion complex relative to the CSE: oral; for time at which concentration in rat plasma reached the peak: given the CSE or the inclusion complex; for relative bioavailability in the inclusion complex relative to the CSE: ratio of the AUC
Description: as §1
To comparatively evaluate the pharmacokinetics of the isoflavones in CSE and the CSE/β-CD inclusion complex, the content of FMN and BCA in rat plasma was determined on a UPLC-MS/MS system equipped with a Waters ACQUITY UPLC and a Xevo TQ-S micro ESI-MS/MS system (Milford, America). An ACQUITY UPLC BEH-C18 (2.1 mm × 100 mm, 1.7 μm) column was applied for the separation work using 0.05% formic acid in water (A) and acetonitrile (B) as the mobile phase with a flow rate of 0.2 mL/min and a column temperature of 30 °C. The gradient elution program was as follows: 0-6 min, A 50%. The selected multiple reaction monitoring (MRM) modes in the negative ESI mode of the mass spectrometer were used for all the analytes, and the capillary voltage was set at 2.66 kV with a source temperature of 150 °C using nitrogen as the desolvation gas and cone gas. The CHL was used as an internal standard (IS).
All plasma samples were stored at −20 °C and thawed at room temperature. To precipitate the protein, a 100 μL plasma sample was precisely aspirated, adding 40 μL of the IS solutions and 260 μL of acetonitrile, and vortexing for 3 min. Then the mixture was centrifuged at 13,000 rpm for 10 min and the 5 μL supernatant was injected for = UPLC-MS/MS analysis.
Compared with the rats fed the CSE, the rats fed the inclusion complex had higher Cmax, longer elimination half-lives (t1/2), larger areas under the concentration–time curve (AUC), and lower apparent volumes of distribution (Vd) and plasma clearance (CL). […] This caused the content of FMN and BCA in rats to be higher and have a longer retention time. The relative bioavailability of the two isoflavones in the inclusion complex relative to the CSE was calculated using the ratio of the AUC. […] It is reported that β-CD and its derivatives can inhibit the activity of P-glycoprotein, which is closely related to the bioavailability of oral drugs. The decrease in P-glycoprotein activity can reduce the excretion of drugs from cells.

[5] = oral gavage of CSE/β-CD inclusion complex

Row | Structure (SMILES) | solubility and dissolution properties by forming the CSE/β-CD inclusion complex, compared with CSE [1] | content in the tissues, inclusion complex compared with CSE [2] | distribution characteristics of the contents in rat tissues [2] | inclusion ratio [3] | drug loading in the CSE/β-CD inclusion complex [3] | AUC(0-inf) [4, 5] | AUC(0-t) [4, 5] | Cmax [4, 5] | half-life [4, 5] | k el [4, 5] | AUC(0-inf) ([4]; oral gavage of CSE) | AUC(0-t) ([4]; oral gavage of CSE) | Cmax ([4]; oral gavage of CSE) | half-life ([4]; oral gavage of CSE) | k el ([4]; oral gavage of CSE) | Tmax ([4]; oral gavage of CSE) | CL [4, 5] | Vd [4, 5] | CL ([4]; oral gavage of CSE) | Vd ([4]; oral gavage of CSE) | also measured
1 | COc1ccc(-c2coc3cc(O)cc(O)c3c2=O)cc1 [BCA, biochanin A] | significantly improved | significantly higher | liver > kidneys > lungs > spleen > heart > brain | 81.79% | 17.9 mg/g | 173 ± 56.3 ng·h/mL | 102 ± 45.3 ng·h/mL | 22.4 ± 2.45 ng/mL | 7.33 ± 3.07 h | 3.06e-05 s⁻¹ | 61.9 ± 15.5 ng·h/mL | 37.6 ± 17.7 ng·h/mL | 13.9 ± 3.17 ng/mL | 4.63 ± 0.88 h | 4.17e-05 s⁻¹ | 0.25 h | 93.83 ± 29.01 L/h | 896.37 ± 113.90 L | 252.24 ± 52.73 L/h | 1635.82 ± 92.84 L | time at which concentration in rat plasma reached the peak [4]: 15 min; relative bioavailability in the inclusion complex relative to the CSE [4]: 270.7%
2 | COc1ccc(-c2coc3cc(O)ccc3c2=O)cc1 [FMN, formononetin] | significantly improved | significantly higher | liver > kidneys > lungs > spleen > heart > brain | 53.31% | 5.2 mg/g | 72 ± 25.7 ng·h/mL | 51.5 ± 12.3 ng·h/mL | 21 ± 2.81 ng/mL | 4.51 ± 2.07 h | 5.56e-05 s⁻¹ | 37 ± 12.9 ng·h/mL | 30 ± 15.2 ng·h/mL | 14.4 ± 1.46 ng/mL | 3.84 ± 2.1 h | 6.39e-05 s⁻¹ | 0.25 h | 75.79 ± 23.47 L/h | 441.60 ± 140.88 L | 148.14 ± 47.18 L/h | 722.51 ± 197.97 L | time at which concentration in rat plasma reached the peak [4]: 15 min; relative bioavailability in the inclusion complex relative to the CSE [4]: 171.6%
